Take `O=C(O)Cc1c(-c2ccccc2)nn(-c2cccc(C(F)(F)F)c2)c1-c1ccccc1`: the melting point (commonly the temperature, or range, at which the solid turns liquid) was 166 to 167 °C.

Take `Nc1cc(-n2cccc2)ccc1Nc1cccc(-n2ccnc2)c1`: the melting point fell in the range of 207 to 212 °C.

Consider `CS(=O)(=O)c1ccc(Oc2ccc(C(=O)c3ccccc3)cc2)cc1`, for which the melting point fell in the range of 164 to 165 °C.

`CC1(C)Oc2ccc(C#N)cc2[C@@H](NNC(=O)c2ccccc2)[C@@H]1O` (relative stereo): the melting point lay in the range of 197 to 199 °C.

For `O=C(NC(Cc1ccccc1)C(=O)O)c1ccc(-c2cnc(OCc3ccccc3)nc2)cc1` (stereo unspecified), the melting point was 184 °C.

Regarding `O=C(CCCCN1CCCCC1)c1ccc2oc3ccc(C(=O)CCCCN4CCCCC4)cc3c(=O)c2c1`, the melting point fell in the range of 109 to 110 °C.

In turn, `CNc1nc(-c2cccc(NC(=O)c3ccc(O)cc3)c2)c2cc(OC)c(OC)cc2n1` had a melting point of 178 to 180 °C.

The compound `Cn1ncnc1COc1nn2c(-c3ccccc3F)nncc2c1-c1cccc(F)c1` showed a melting point of 176 °C.

For the compound `Cc1c(Cl)nn(C(C)(C)C(=O)N(C)C)c1-c1ccccc1`, the melting point was 134 to 136 °C.

`CCCOc1ccccc1-c1nc2nnc(N)nc2c(=O)[nH]1` yielded a melting point of 322 to 325 °C.

For `O=C(O)c1ccc(OCC2CCN(CCOc3ccc4c(c3)OCO4)CC2)cc1`, the melting point lay in the range of 133 to 136 °C.

Compound `CCOCc1nc2c(N)nc3ccccc3c2n1CCOCCCS(=O)(=O)N(C)C` showed a melting point of 61 to 64 °C.

`CCN1CCc2ccc(Nc3ncc(Cl)c(N[C@@H]4c5ccccc5C[C@@H]4O)n3)cc2CC1` registered a melting point of 209 °C.

`CN(CCO)CCn1nc2c3c(c(NCCNCCO)ccc31)C(=O)c1c(O)ccc(O)c1-2` registered a melting point of 191 to 194 °C.

`CN(SN(CC#N)CC#N)C(=O)Oc1cccc2c1OC(C)(C)C2` displayed a melting point of 94 to 95 °C.

Compound `COc1cc(O)c(Br)c2cc(-c3ccc(O)cc3)oc12` yielded a melting point of 170 °C.

On to `NC(=O)c1ccnc(-c2ccc(Oc3ccc(F)cc3)cc2)n1`, for which the melting point was 195 to 197 °C.

`O=C(O)C1OC(c2ccccc2)=NN1C(=O)CCS` (stereo unspecified) had a melting point of 106 to 109 °C.

`CCCCc1nc(NC(=O)Nc2ccccc2)[nH]c(=O)c1Cc1ccc(-c2ccccc2C(=O)OC)cc1`: the melting point lay within 217 to 219 °C.

Compound `c1cc2[nH]ncc2cc1OC1CCOCC1` returned a melting point of 151 to 153 °C.

Compound `N#Cc1cn(CCl)cc1-c1cccc(Cl)c1Cl` registered a melting point of 132 to 133 °C.

In turn, `Cc1cccc(NCCC(N)=S)c1C` registered a melting point of 116 to 118 °C.

For the compound `CCCOCCCCCCCCCC(=O)O`, the melting point was below 30 °C.

`CC[C@@H]1O[C@](/C=C/C2CC2)(C(F)(F)F)c2c(ccc3c2OCO3)NC1=O` (relative stereo): the melting point lay within 188 to 190 °C.

For the compound `CC(C)OC(=O)c1cnc(C(=O)O)cn1`, the melting point lay within 149 to 152 °C.

Compound `CNC(=O)C(Cc1ccc(OC)cc1)NC(=O)C(CC(C)C)C(S)CC(=O)N1CCN(C)CC1` (stereo unspecified) had a melting point of 65 to 68 °C.

As for `COc1ccc(CCc2ccc(NC(=O)C(=O)c3cccc(C(C)(C)C)c3O)cc2)cc1OC`, the melting point lay in the range of 143 to 144 °C.

`CC(=O)c1nc2ccc(OC(C)C)cc2cc1O` yielded a melting point of 95 to 97 °C.

For `CC(=O)N(c1cc2occc(=O)c2cc1Oc1ccccc1)S(C)(=O)=O`, the melting point fell in the range of 166 to 169 °C.

`Cc1c(C#N)cccc1C(=O)c1ccc(Cl)cc1` had a melting point of 84 °C.

With `N=C(NS(=O)(=O)C=Cc1ccc([N+](=O)[O-])cc1)c1ccccc1`, the melting point fell in the range of 173 to 175 °C.

With `O=C(NC(Cc1ccc(OCc2ccc(F)cc2)cc1)C(=O)O)c1cc2ccc(-c3ccc(Cl)cc3)cc2o1` (stereo unspecified), the melting point fell in the range of 166 to 168 °C.

As for `CC(C)(C)OC(=O)NCC(=O)OCCCNc1cccc2c1C(=O)c1ccccc1C2=O`, the melting point is 84 °C.

For `CCC(c1ccccc1)c1c(O)c2c(oc1=O)CCC2` (stereo unspecified), the melting point is 183 to 186 °C.

Take `CC(=O)NCCC1=C(C(C)C)Cc2cnc3c(c21)CCO3`: the melting point lay within 164 to 166 °C.

Compound `COc1ccc(N2CCN(Cc3n[nH]c4c3Cc3ccccc3-4)CC2)cc1` came in with a melting point of 176 to 178 °C.

The compound `COc1ccc2cc(C3CCN(C[C@H](O)COc4cccc5sc(-c6ncc(C)o6)cc45)CC3)ccc2c1` had a melting point of 163 to 166 °C.

With `COc1cc(OCc2ccccn2)ccc1/C=C/c1cc(/C=C/c2ccc3cc[nH]c3c2)n[nH]1`, the melting point lay in the range of 237 to 239 °C.

Compound `O=C(O)CCC(=O)N1CCN(c2cc3c(cc2F)c(=O)c(C(=O)O)c2sccn23)CC1` showed a melting point of 331 to 334 °C.

Turning to `Cc1oc(C)c(C(=O)OC2CC(C)(C)N(CC#N)C(C)(C)C2)c1C`, the melting point lay within 88 to 89 °C.

Consider `CCNC=C(C(=O)C=Cc1ccc2c(c1)OCO2)C(=O)OC`, for which the melting point was in the range of 124 to 125 °C.

`Oc1cccc([C@H]2CC[C@@H](c3ccccc3)N2)c1` (racemic) returned a melting point of 151 °C.

As to `C[C@@H](N[C@@H](Cc1c[nH]cn1)C(=O)O)[C@H](NC(=O)[C@@H](N)CCCCN)C(=O)O`, the melting point lay in the range of 175 to 179 °C.

The compound `COc1ccccc1N(CC(=O)OC(C)(C)C)C(=O)CN1C(=O)c2ccccc2C1=O` returned a melting point of 144 °C.

The compound `CCC(CC)NC(=O)C(C)(C)COc1cccc2nc(C)c(C(=O)O)c(N)c12` returned a melting point of 172 to 174 °C.

In the case of `CCCCCCCCSCC(=O)[C@H](Cc1ccccc1)NC(=O)[C@H](CC(C)C)NC(=O)OCc1ccccc1`, the melting point amounted to 69 °C.

Compound `Cc1nc2cc(CN3CCN(C(c4ccccc4)c4ccccc4)CC3)ccc2n1C` displayed a melting point of 206 °C.

As to `Cn1nnnc1SCC(=O)C12CC3CC(CC(C3)C1)C2`, the melting point was in the range of 112 to 113 °C.

Take `O=C1CC(c2ccc(-c3ccc(Br)cc3)cc2)Cc2ccccc21` (stereo unspecified): the melting point was in the range of 156 to 158 °C.

In the case of `O=C(O)c1cnn2c(C(F)(F)F)cc(-c3ccc(C(F)(F)F)c(Cl)c3)nc12`, the melting point came to 244 °C.

For the compound `Cc1cc(OCC(F)(F)F)c(NC(=O)CN2CCN(CCSc3nc4ccccc4o3)CC2)c(OCC(F)(F)F)n1`, the melting point lay within 141 to 142 °C.

`O=C1c2cc(F)ccc2-n2c1nc1ccc(F)cc1c2=O` came in with a melting point of 295 to 296 °C.

For the compound `O=C(O)Cc1ccc(NC(=O)Nc2ccccc2C(F)(F)F)cc1`, the melting point was 224 to 225 °C.

As for `COc1ccc(Cl)cc1NC(=O)[C@H]1[C@H](c2ccc(S(N)(=O)=O)cc2)C1(C)C` (relative stereo), the melting point is 129 to 133 °C.

In turn, `Cc1cc(-c2cc3c(cc2F)c(=O)c(C(=O)O)cn3C2CC2)cc(C)n1` showed a melting point of 300 to 302 °C.

In the case of `CCOC(=O)C1C2CCC(=O)C21` (stereo unspecified), the melting point was in the range of 36 to 38 °C.

On to `N#Cc1ccc(-c2cn(-c3ccc(OCC(F)(F)F)cc3)cn2)cc1`, for which the melting point was 179 °C.

Take `O=C(O)CCCOc1cccc(-c2n[nH]c3c2Cc2ccccc2-3)c1`: the melting point fell in the range of 216 to 217 °C.

The compound `Cn1cc(C2=C(c3c4n(c5ccccc35)CCCC(CNC(N)=N[N+](=O)[O-])C4)C(=O)NC2=O)c2ccccc21` (stereo unspecified) yielded a melting point of 177 to 178 °C.

For `CCOC(=O)C1Cc2cc3c(C)noc3c(Cl)c2O1` (stereo unspecified), the melting point lay within 123 to 124 °C.

In turn, `CS(=O)(=O)c1ccc(C(=O)N[C@H]2CC[C@H](CCN3CCN(c4nccc5c4CCO5)CC3)CC2)s1` displayed a melting point of 229 °C.

Take `CCOC(=O)c1c(C)nc2c(c1N)c1c(n2Cc2ccccc2)CCCC1`: the melting point fell in the range of 146 to 147 °C.

As to `COC1(c2cc(F)cc(OCC#Cc3ccc(Cc4nc(-c5ccccc5)c(-c5ccc(S(N)(=O)=O)cc5)o4)cc3)c2)CCOCC1`, the melting point was 86 to 100 °C.

Compound `N#Cc1c(N2CCN(C(=O)c3cccs3)CC2)c2cccnc2n(Cc2ccccc2)c1=O` gave a melting point of 263 °C.

Take `CCOC(=O)C1=C(C)NC(=S)N(C(=O)OCC)C1c1cccc(C#N)c1` (stereo unspecified): the melting point was in the range of 155 to 156 °C.

For the compound `O=C(O)c1cc(=O)c2c(OCC(O)COc3ccccc3)cccc2o1` (stereo unspecified), the melting point is 88 to 90 °C.

Regarding `CCOC(=O)c1ccc(NCc2ccccc2)cc1`, the melting point was in the range of 90 to 93 °C.

`O=C1CC(=O)C(C2CCCSC2)CO1` (stereo unspecified) came in with a melting point of 91 to 93 °C.

`COCCc1nc2c(N)nc3ccccc3c2n1CCCCNC(=O)c1ccc(-n2cccc2)nc1` gave a melting point of 77 to 80 °C.

Compound `CCCNc1nc(=O)c(C)cn1C1CC(N=[N+]=[N-])C(CO)O1` (stereo unspecified) returned a melting point of 146 °C.

Take `CC(C)(C)OC(=O)NCCN1CC2CN(Cc3ccccc3)CC(C1)O2`: the melting point was in the range of 58 to 60 °C.

`COc1cccc(OC)c1C=CC(=O)C=Cc1c(OC)cccc1OC` displayed a melting point of 152 to 154 °C.

For `COC(=O)Cc1ccc(O)c(Cl)c1`, the melting point fell in the range of 35 to 36 °C.

In the case of `COC(=O)CC(CCc1ccc(C)cc1)NC(C)=O` (stereo unspecified), the melting point was 50 to 51 °C.

In turn, `O=C1CC(O)CN1S(=O)(=O)c1ccc(N2CCCCC2)cc1` (stereo unspecified) showed a melting point of 158 to 159 °C.

`CC(C)(C)OC(=O)Cc1ccc(O)cc1` had a melting point of 95 to 96 °C.

In the case of `COc1ccc(C2CNC(=O)O2)cc1O` (stereo unspecified), the melting point was in the range of 157 to 160 °C.

The compound `Cc1oc(-c2ccccc2)nc1CCOc1ccc(C[C@H](NC(=O)C=Cc2cccc(C(F)(F)F)c2)C(=O)O)cc1` displayed a melting point of 214 to 216 °C.

`Cc1ccc(NC(=O)c2ccccc2[N+](=O)[O-])cc1C(F)(F)F`: the melting point is 172 to 173 °C.

`O=C1Cc2c(cccc2OCC2CO2)N1` (stereo unspecified) came in with a melting point of 164 to 166 °C.

`COC(=O)C1C=CCn2c(=O)n(CO)c(=O)n21` (stereo unspecified) showed a melting point of 123 to 125 °C.

`COC(=O)C1Cc2c(n(C)c3ccccc23)CN1C(=S)SCc1cccs1` (stereo unspecified): the melting point was 139 to 140 °C.

For `CSC(=NC(=O)OCc1ccccc1)NNC(=O)NC(=O)OCc1ccccc1`, the melting point lay in the range of 165 to 166 °C.

In turn, `CC(C(O)c1ccc2nc(N)sc2c1)N1CCC(Cc2ccccc2)CC1` (stereo unspecified) yielded a melting point of 197 to 200 °C.

In turn, `CCOC(=O)/C=C(C)/C(F)=C/C=C(C)/C=C/c1c(Cl)cc(OC)c(C)c1C` had a melting point of 126 to 128 °C.

`O=C(NCCO)c1cc(-c2ccnc(Nc3cccc(OC(F)(F)C(F)F)c3)n2)ccn1`: the melting point is 159 °C.
